Results: patent US9072729B2, “Method for treating fibrosis and cancer with imidazolium and imidazolinium compounds” (Agency for Science, Technology and Research, priority 2008, dated 2015)

Tests used:
[1] = culture medium for human esophageal cancer cells (Hou et al. 2005); cited from earlier work
HLE cells [2] = experiment: DNA content analysis (cell cycle) in HLE cells; format: cell-based, human; settings: 0, 1, 3 mM, 24 hr
Description: FIG. 21. DBZIM inhibited cell proliferation and disrupted cell cycle in HLE cells (A). DBZIM inhibited HCC cell proliferation. HLE cells were seeded at a density of 5000 cells/well in 96-well plate, and cultured for 18-24 h in 10% […] DMEM before the addition of various compounds (0-1.25 mM) in 10% FBS DMEM for 48 h of proliferation before assaying. Cell count was calculated based on Hoechst dye staining and BrdU incorporation was based on the total fluorescence intensity of antibody staining. (B). DBZIM arrested HCC cells at G0/G1 phase. HLE cells were incubated with DBZIM (0, 1, 3 mM) for 24 hr before fixation and DAPI staining for DNA content (2N vs. 4N) determination.
HLE cells grown in a 96-well plate were treated with compounds in 6 replicates for 24 hr. Cells were then fixed with 4% paraformaldehyde and stained with DAPI. Cells were analyzed and imaged on ArrayScan VTI HCS reader (Thermal Scientific, PA, USA) and DNA content (2N vs. 4N) was determined based on DAPI staining.

HLE cells [3] = experiment: Annexin V staining and flow cytometry, HLE; format: cell-based, human; settings: 24 hr, TRAIL 100 ng/ml
Description: (§1) FIG. 22. […] HLE or HepG2 cells were incubated with DBZIM of various concentrations for 6 hr, and assayed for caspase 3/7 activity and LDH releasing (expressed as % toxicity). DBZIM induced apoptosis as characterized by annexin V staining using flow cytometer in HLE (E) and HepG2 (F). Scatter plot and histogram gave the representative information on the cell population distribution while bar graphs quantified the percentage of apoptotic cells from the histogram. HLE and HepG2 cells were treated by DBZIM of various concentrations for 24 hr before harvesting for annexin V staining and flow cytometric analysis.
(§2) HLE and HepG2 cells were treated with various concentrations of DBZIM or TRAIL (100 ng/ml) for 24 hr, harvested and labeled with Annexin V-FITC (BioVision, CA, USA). The labeled cells were analysed by flow cytometry FACSCalibur ([…], NJ, USA) and CellQuest software. Cells showing green staining in the plasma membrane were considered as apoptotic cells.

HepG2 cells = experiment: Annexin V staining and flow cytometry, HepG2; format: cell-based, human; settings: HepG2, 24 hr; TRAIL 100 ng/ml
Description: as §1, §2

[4] = test system: caspase 3, 8 and 9 in HLE cells; experiment: Protein extract based caspase 3/8/9 colorimetric assays; format: cell-based, human; settings: 24 hr
Description: FIG. 23. (A). […] HLE cells were grown in a T75 flask and treated with DBZIM for 24 hr. The cells were then lysed and cytoplasmic protein was collected for assaying caspase 8, 9 and 3 using kits from Biovision. The data was normalized against the vehicle control. (B). […] HLE cells were treated by DBZIM of 1.5 mM for 24 hr. Cytosolic and mitochondria protein fractions were collected using a kit from Biovision. 15 μg of each protein was resolved in 4-12% gradient PAGE-SDS gel. The target proteins were recognized by antibody of cytochrome C, and visualized by the ECL method. The membrane was stripped and probed for the α-tubulin as the loading control for cytosolic fraction and Cox4 for mitochondria fraction.
Capspase 3/8/9 activities were determined using total protein extract as starting material (Biovision Inc., CA, USA). HLE cells were cultured in T75 flask and treated with DBZIM of various concentrations. Cytosolic protein extract was collected by pelleting and lysing the cells and centrifugation to remove the debris. Capspase 3, 8 and 9 activities were assayed using the same protein extract but adding the respective substrate. Absorbance readings were taken at 405 nm using Tecan Safire II plate reader. Results were expressed as relative caspase activity by normalizing to control cells without compound treatment.

U87 MG = experiment: Proliferation assay (MTS), glioma U87 MG; format: cell-based; settings: Homo sapiens, U-87 MG, 48 h, determined at day 2
Description: (§3) FIG. 30. DBZIM inhibited cell proliferation in glioma cell line C6 (A) and U87 MG (C) and induced caspase 3/7 activity in C6 (B) and U87 MG (D). C6 or U87 cells were incubated with DBZIM of various concentrations for 48 hr for proliferation assay and 6 hr for caspase 3/7 activation assay. Proliferation was measured using MTS kit from Promega and expressed as relative cell proliferation with control group was normalized to 1. Caspase 3/7 activity was quantified using a kit from Promega and also expressed as relative caspase 3/7 activity of treated groups over control group.
(§4) Proliferation of Glioma cell lines: U87 MG and C6 under the treatment of DBZIM was examined using 3-(4,5-dimethylthiazol-2-yl)-5-(3-carboxymethoxyphenyl)-2-(4-sulfophenyl)-2H-tetrazolium (MTS) based proliferation assay kit (Promega, Wis., USA). MTS reagent was added to the control and treated cells (after 48 hr) directly and the absorbance signal was read at 490 nm using a Tecan Safire II plate reader.

C6 = experiment: Proliferation assay (MTS), glioma C6; format: cell-based; settings: Rattus norvegicus, 48 h; C6, determined at day 2
Description: as §3, §4

Compound | half life in culture medium [1] [min] | cell cycle arrest (HLE cells [2]) | apoptosis (annexin V staining) (HLE cells [3]) | apoptosis (annexin V staining) (HepG2 cells) | caspase 3 activity [4] | caspase 8 activity [4] | caspase 9 activity [4] | IC50 (U87 MG) [mM] | IC50 (C6) [mM]
(−)-Epigallocatechin gallate [EGCG, reference compound] | 30 | – | – | – | – | – | – | – | –
[Br-].c1ccc(Cn2cc[n+](Cc3ccccc3)c2)cc1 [DBZIM, 1,3-bisbenzylimidazolium bromide] | – | arrested HLE cells in the G0/G1 phase | dose-dependently induced apoptosis | dose-dependently induced apoptosis | dose-dependently enhanced | not affected | dose-dependently enhanced | 2.1 | 1
